“Also recorded” adds a separate entry of the source.
Columns and labels:
P. digitatum = experiment: Fungicidal activity assay on PDA in sealed Petri dish (growth inhibition and mortality); assay type: cell-based, Penicillium digitatum; settings: for I - Inhibition class: 2 days; for I - Inhibition, minimal concentration that inhibited the growth: concentration to which the class above belongs
Protocol: (§1) In exemplary procedures, the fungicidial activity of the compounds listed in Table 2 were examined by activity assays as follow: Petri dishes, 90 mm in diameter, with air volume of 80 mL, contained 10-12 mL of growth medium comprising potato dextrose agar (PDA) (Acumedia, Lansing, Michigan, USA) amended with tetracycline at 12 μg/mL. Each compound was placed on a disconnected cover from an Eppendorf tube that was located in the middle of the Petri dish and a hyphae-containing plug of each test fungus was added to the culture plate. In exemplary procedures, the tested compounds trans-2-heptenal, trans-2-octenal were tested in comparison with octanal, trans-2-octen-1-ol, methyl trans-2-octenoate, trans-3-octen-2-one and 3-pentenenitrile. In addition, cyclic ketones as 2-cyclopenten-1-one, 2-cyclohexen-1-one and α-tetralone were also examined. Then, the culture plate was sealed with parafilm and incubated at room-temperature for 2 days, after which the growth of the test fungi in those dishes was compared with those in the test compound-free control dishes. At the end of the assay, the viability of each test fungus was evaluated by transferring inoculum plugs to fresh PDA plates and observing the growth that developed within the next 2 days. The test fungi used in this study included but were not limited to Alternaria alternata, Botrytis cinerea, Sclerotinia rolfsii, Penicillium digitatum, Fusarium oxysporum f. sp. radicis-cucumerinum and Rhizoctonia solani.

[1] = system: Meloidogyne javanica second stage juveniles (J2s); experiment: Nematocidal activity: viability of J2 nematodes after 2 days exposure to the compound in a sealed box; assay type: in vivo
From the text: In exemplary procedures, the sedentary root-knot nematode from the genus Meloidogyne javanica second stage juveniles (J2s) was propagated on greenhouse-grown nematode-susceptible tomato Lycopersicon esculentum cv. ‘Avigail 870’ (Hazera, Shikmim, Israel), and nematode eggs were bulk-extracted from the roots with 0.05% (v/v) sodium hypochlorite (NaOCl) followed by sucrose flotation and successive sievings through nylon filters of 300, 120, 60, and 30 μm mesh sizes (AD Sinun Technologies, Petach Tikvah, Israel). For hatching J2, extracted eggs were placed on 30-μm sieves (AD Sinun Technologies) in 0.01 M MES (2-(N-morpholino) ethanesulfonic acid hydrate) pH 6.5 buffer under aseptic conditions in darkness for 5 days, and hatching J2s were collected for further experiments.
Seven vials, each containing 300 J2 nematodes with 0.5 mL of 0.01 M 2-(N-morpholino)ethanesulfonic acid (MES) buffer, were exposed to cyclic ketone compounds in order to examine their nematocidal activity and reduction in viability. In addition, a humid environment in a sealed 1 L box was maintained by addition 5 ml of distilled H2O to a 50-mm Petri plate. The box was sealed after compound addition into each 50-mm Petri plate together with 5-250 mg of perlite particles and incubated for 2 days in the dark at 25±1° C. C5 and C6 saturated and α,β-unsaturated cyclic ketones were tested for their nematocidal activity. The J2 nematodes viability was examined following exposure to the cyclic ketone compounds, by a straightforward small-scale nematode extraction method, based on the traditional Baermann funnel method. Briefly, all nematode suspensions were loaded onto 30-μm (AD Sinun Technologies) filters (1.0-1.5 cm height, 1.1-2.0 cm^3 internal area), and the nematodes were washed twice with 300 μL of 0.01 M MES buffer in order to remove any residues. Then, filters holding nematodes were placed into 15 mL Falcon centrifuge tubes, each containing 900 μL of 0.01 M of MES buffer. These filters allow active passage of only living J2s while paralyzed or dead nematodes remain on top of the filter. The whole apparatus including the filter holding the nematodes and the Falcon tubes were placed in the dark for 3 h at 25±1° C. Then, the filters were removed and the viable nematodes, which were able to actively cross the filter toward the 0.01 M of MES buffer, were collected from the Falcon tube and counted using a Nematode Counting Slide (Chalex LLC, Portland, OR, USA) and a SV11 stereomicroscope (Zeiss, Jena, Germany).
Data were analyzed by the JMP 12 software package (SAS Inc., Cary, NC, USA). Mean numbers of viable J2s under various conditions were subjected to one-way analysis of variance (ANOVA), followed by the Tukey-Kramer multiple comparison test, with significance set at P<0.05.

[2] = system: Meloidogyne javanica second stage juveniles (J2s); experiment: as above; settings: in vivo
B. cinerea = experiment: Fungicidal activity assay on PDA in sealed Petri dish (growth inhibition and mortality); assay type: cell-based, Botrytis cinerea; settings: for I - Inhibition class: 2 days; for I - Inhibition, minimal concentration that inhibited the growth: concentration to which the class above belongs
Protocol: as §1

A. alternata = experiment: as above; assay type: cell-based, Alternaria alternata; settings: for I - Inhibition class: 2 days; for I - Inhibition, minimal concentration that inhibited the growth: concentration to which the class above belongs
Protocol: as §1

S. rolfsii = experiment: as above; assay type: cell-based, Sclerotinia rolfsii; settings: S. rolfsii; for I - Inhibition class: 2 days; for M - Mortality, minimal concentration that killed the fungus / MFC: NA + number = still viable in the highest concentration tested (given as >); for I - Inhibition, minimal concentration that inhibited the growth: concentration to which the class above belongs; for MFC: Agroathelia rolfsii, read-out: M - Mortality, minimal concentration that killed the fungus
Protocol: as §1, with “Each” for “In exemplary procedures, the fungicidial activity of the compounds listed in Table 2 were examined by activity assays as follow: Petri dishes, 90 mm in diameter, with air volume of 80 mL, contained 10-12 mL of growth medium comprising potato dextrose agar (PDA) (Acumedia, Lansing, Michigan, USA) amended with tetracycline at 12 μg/mL. Each”

Tomato plants = experiment: Phytotoxicity on tomato plants in soil, compound on perlite particles; assay type: in vivo; settings: one day after treatment
From the text: In exemplary procedures, the phytotixicity of trans-2-octenal and 2-cyclopenten-1-one was examined in triplicates for each concentration: 250, 1,000, 4,000, and 20,000 ppm compared to control.

test fungi = experiment: Fungicidal activity assay on PDA, summaries over the test fungi; assay type: cell-based; settings: comparison within the series
Protocol: as §1

R. solani = experiment: microbe, parasite or virus in culture; assay type: cell-based; settings: R. solani; for MFC: Rhizoctonia solani, read-out: M - Mortality, minimal concentration that killed the fungus; for MFC / M - Mortality, minimal concentration that killed the fungus: NA + number = still viable in the highest concentration tested (given as >); for I - Inhibition class: 2 days; for I - Inhibition, minimal concentration that inhibited the growth: concentration to which the class above belongs
Protocol: as §1, with “Each” for “In exemplary procedures, the fungicidial activity of the compounds listed in Table 2 were examined by activity assays as follow: Petri dishes, 90 mm in diameter, with air volume of 80 mL, contained 10-12 mL of growth medium comprising potato dextrose agar (PDA) (Acumedia, Lansing, Michigan, USA) amended with tetracycline at 12 μg/mL. Each”

[3] = system: F. oxysporum f. sp. radicis-cucumerium; experiment: Fungicidal activity assay on PDA in sealed Petri dish (growth inhibition and mortality); assay type: cell-based, Fusarium oxysporum f. sp. radicis-cucumerinum; settings: for MFC: Fusarium oxysporum, read-out: M - Mortality, minimal concentration that killed the fungus; for MFC / M - Mortality, minimal concentration that killed the fungus: NA + number = still viable in the highest concentration tested (given as >); for I - Inhibition class: 2 days; for I - Inhibition, minimal concentration that inhibited the growth: concentration to which the class above belongs
Protocol: as §1, with “Each” for “In exemplary procedures, the fungicidial activity of the compounds listed in Table 2 were examined by activity assays as follow: Petri dishes, 90 mm in diameter, with air volume of 80 mL, contained 10-12 mL of growth medium comprising potato dextrose agar (PDA) (Acumedia, Lansing, Michigan, USA) amended with tetracycline at 12 μg/mL. Each”

[4] = NA + number = still viable in the highest concentration tested (given as >)
[5] = at the concentration given, 2 days incubation

Compound | I - Inhibition class (P. digitatum) | M - Mortality, minimal concentration that killed the fungus (P. digitatum; [4]) | I - Inhibition, minimal concentration that inhibited the growth (P. digitatum) | Activity: reduction in J2s viability relative to non exposed control J2s (class) [1, 5] | Activity: the most effective concentration [2] | I - Inhibition class (B. cinerea) | M - Mortality, minimal concentration that killed the fungus (B. cinerea; [4]) | I - Inhibition, minimal concentration that inhibited the growth (B. cinerea) | I - Inhibition class (A. alternata) | M - Mortality, minimal concentration that killed the fungus (A. alternata; [4]) | I - Inhibition, minimal concentration that inhibited the growth (A. alternata) | I - Inhibition class (S. rolfsii) | M - Mortality, minimal concentration that killed the fungus (S. rolfsii) | I - Inhibition, minimal concentration that inhibited the growth (S. rolfsii) | fungicidal activity in words (test fungi) | MFC (R. solani) | MFC [3] | MFC (S. rolfsii) | I - Inhibition class (R. solani) | M - Mortality, minimal concentration that killed the fungus (R. solani) | further results
CC(C)=CCCC(C)=CCCC(C)=CC=O (single isomer, unassigned) [Farnesal mixture of isomers, Farnesal] | NI (<50% growth inhibition) | > 125 ppm | 125 ppm | N (<50% reduction in viability) | N 250 ppm | MI (Medium inhibition - 76-99% of growth inhibition) | > 125 ppm | 12.5 ppm | NI (<50% growth inhibition) | > 125 ppm | 125 ppm | MI (Medium inhibition - 76-99% of growth inhibition) | > 125 ppm | 125 ppm | – | – | – | – | – | – | –
O=C1C=CCC1 [2-cyclopenten-1-one] | – | – | – | – | – | – | – | – | – | – | – | – | – | – | fungicidal activity, to some extent | > 25 µg/mL | > 25 µg/mL | > 25 µg/mL | – | – | phytotoxicity (Tomato plants; 250 ppm): No phytotoxicity; phytotoxicity (Tomato plants; 1,000 ppm): phytotoxic; also recorded: Low phytotoxicity; phytotoxicity (Tomato plants; 4,000 ppm): phytotoxic; also recorded: Medium phytotoxicity; phytotoxicity (Tomato plants; 20,000 ppm): phytotoxic; also recorded: Strong phytotoxicity
O=C1CCCCCC1 [Cycloheptanone] | – | – | – | – | – | – | – | – | – | – | – | – | – | – | – | > 250 µg/mL | > 250 µg/mL | 2500 µg/mL | – | – | MFC (P. digitatum; Penicillium digitatum, NA + number = still viable in the highest concentration tested (given as >), read-out: M - Mortality, minimal concentration that killed the fungus): 2500 µg/mL; nematocidal activity in words ([1]; comparison within the series): nematocidal effects at substantially higher concentrations; MFC (B. cinerea; Botrytis cinerea, NA + number = still viable in the highest concentration tested (given as >), read-out: M - Mortality, minimal concentration that killed the fungus): 1250 µg/mL; MFC (A. alternata; Alternaria alternata, NA + number = still viable in the highest concentration tested (given as >), read-out: M - Mortality, minimal concentration that killed the fungus): 1250 µg/mL
C/C=C(\C)C=O [Tiglic aldehyde] | – | – | – | M (76-90% reduction in viability) | M 25 ppm | – | – | – | – | – | – | MI (Medium inhibition - 76-99% of growth inhibition) | > 25 ppm | 25 ppm | – | – | – | – | MI (Medium inhibition - 76-99% of growth inhibition) | > 25 ppm | I - Inhibition, minimal concentration that inhibited the growth (R. solani): 25 ppm; I - Inhibition class [3]: NI (<50% growth inhibition); M - Mortality, minimal concentration that killed the fungus [3]: > 25 ppm; I - Inhibition, minimal concentration that inhibited the growth [3]: 25 ppm
O=C1CCCc2ccccc21 [α-Tetralone] | – | – | – | – | – | – | – | – | – | – | – | NI (<50% growth inhibition) | > 25 ppm | 25 ppm | further reduced fungicidal activity | – | – | – | NI (<50% growth inhibition) | > 25 ppm | I - Inhibition, minimal concentration that inhibited the growth (R. solani): 25 ppm; I - Inhibition class [3]: NI (<50% growth inhibition); M - Mortality, minimal concentration that killed the fungus [3]: > 25 ppm; I - Inhibition, minimal concentration that inhibited the growth [3]: 25 ppm; Activity: the most effective concentration ([1]; concentration to which the class of the same cell belongs): 25 ppm
CC(=O)/C=C/C1C(C)=CCCC1(C)C (stereo not drawn) [α-ionone] | NI (<50% growth inhibition) | > 1250 ppm | 1250 ppm | – | N 250 ppm | LI (Low inhibition - 51-75% of growth inhibition compared to control.) | > 1250 ppm | 1250 ppm | LI (Low inhibition - 51-75% of growth inhibition compared to control.) | > 1250 ppm | 1250 ppm | LI (Low inhibition - 51-75% of growth inhibition compared to control.) | > 1250 ppm | 1250 ppm | – | – | – | – | – | – | Activity: reduction in J2s viability relative to non exposed control J2s (class) ([1]; in vivo): N 250 (key: S: >90% reduction in viability; M: 76-90% reduction in viability; L: 51-75% reduction in viability; N: <50% reduction in viability)

Source: patent US11998008B2, “Pesticides and methods of controlling pests” (The State of Israel, Ministry of Agriculture & Rural …, priority 2017, dated 2024)
